Experimental findings from PMC8200523, “Designing and Development of FRET-Based Nanosensor for Real Time Analysis of N-Acetyl-5-Neuraminic Acid in Living Cells” (Frontiers in Nutrition, 2021) are described below.

For assay [1], the target named is T1, FLIP-SA (ECFP-SiaP-Venus); sialic acid periplasmic binding protein SiaP (Haemophilus influenzae, UniProt P44542).
T1 construct: SiaP without signal peptide and stop codon, inserted at KpnI site between ECFP (N-term) and Venus (C-term); His6 tag of pRSET-B; E. coli BL21(DE3), Ni-NTA
T1 sequence (P44542 24-329): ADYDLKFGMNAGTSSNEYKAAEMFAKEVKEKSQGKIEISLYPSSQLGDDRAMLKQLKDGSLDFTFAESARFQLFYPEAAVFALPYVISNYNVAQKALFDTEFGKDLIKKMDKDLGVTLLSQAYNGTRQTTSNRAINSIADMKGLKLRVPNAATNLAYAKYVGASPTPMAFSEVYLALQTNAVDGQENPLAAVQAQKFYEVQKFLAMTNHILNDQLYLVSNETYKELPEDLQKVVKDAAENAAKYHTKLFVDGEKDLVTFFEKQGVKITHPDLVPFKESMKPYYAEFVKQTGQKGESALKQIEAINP
Briefly: FRET ratio ([…] nm) titration of purified ECFP-SiaP-Venus sensor. The conditions noted are these: PBS 20 mM, pH 6.5-7.0; sensor 0.20 mg/ml; NeuAc 1 nM-1 M; text prints ~157 μM.

Assay [2] has as its target FLIP-SA (ECFP-SiaP-Venus); sialic acid periplasmic binding protein SiaP (Haemophilus influenzae, UniProt P44542, R150D). The conditions noted are these: PBS 20 mM, pH 6.5-7.0; sensor 0.20 mg/ml.
The target of assay [3] is FLIP-SA (ECFP-SiaP-Venus); sialic acid periplasmic binding protein SiaP (Haemophilus influenzae, UniProt P44542, D72K). The conditions noted are these: PBS 20 mM, pH 6.5-7.0; sensor 0.20 mg/ml.
Sequence of FLIP-SA (ECFP-SiaP-Venus); sialic acid periplasmic binding protein SiaP (Haemophilus influenzae, UniProt P44542, D72K) (P44542 24-329 D72K): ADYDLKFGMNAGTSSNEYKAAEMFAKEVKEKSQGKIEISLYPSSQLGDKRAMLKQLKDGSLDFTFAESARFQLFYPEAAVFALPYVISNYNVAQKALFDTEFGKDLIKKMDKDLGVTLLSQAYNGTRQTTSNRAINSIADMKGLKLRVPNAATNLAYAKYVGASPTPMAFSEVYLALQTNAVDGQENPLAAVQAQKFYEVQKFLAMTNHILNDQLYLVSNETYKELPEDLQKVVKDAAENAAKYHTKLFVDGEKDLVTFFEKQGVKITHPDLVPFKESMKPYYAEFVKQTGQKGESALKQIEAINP
For assay [4], the target named is FLIP-SA (ECFP-SiaP-Venus); sialic acid periplasmic binding protein SiaP (Haemophilus influenzae, UniProt P44542, E90N). Conditions: PBS 20 mM, pH 6.5-7.0; sensor 0.20 mg/ml.
Sequence of FLIP-SA (ECFP-SiaP-Venus); sialic acid periplasmic binding protein SiaP (Haemophilus influenzae, UniProt P44542, E90N) (P44542 24-329 E90N): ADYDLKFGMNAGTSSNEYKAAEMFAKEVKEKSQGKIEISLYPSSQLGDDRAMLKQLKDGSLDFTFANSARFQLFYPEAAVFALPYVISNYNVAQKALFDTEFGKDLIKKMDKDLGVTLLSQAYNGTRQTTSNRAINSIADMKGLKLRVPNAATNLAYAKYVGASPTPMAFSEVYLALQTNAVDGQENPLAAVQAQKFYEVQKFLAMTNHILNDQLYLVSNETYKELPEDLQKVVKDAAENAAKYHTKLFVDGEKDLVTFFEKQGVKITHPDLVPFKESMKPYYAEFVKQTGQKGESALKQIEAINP

Sequence of FLIP-SA (ECFP-SiaP-Venus); sialic acid periplasmic binding protein SiaP (Haemophilus influenzae, UniProt P44542, R150D) (P44542 24-329 R150D): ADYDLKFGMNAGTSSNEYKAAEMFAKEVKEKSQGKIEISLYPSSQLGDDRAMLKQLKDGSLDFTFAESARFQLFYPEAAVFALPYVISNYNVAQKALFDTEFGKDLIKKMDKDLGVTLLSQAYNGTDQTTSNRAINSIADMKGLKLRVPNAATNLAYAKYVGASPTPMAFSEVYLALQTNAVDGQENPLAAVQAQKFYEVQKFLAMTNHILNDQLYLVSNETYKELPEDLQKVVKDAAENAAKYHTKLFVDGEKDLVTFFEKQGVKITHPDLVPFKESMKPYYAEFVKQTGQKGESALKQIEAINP

Broadly, the Kd is a measure of binding affinity in units of concentration. On to `CC(=O)N[C@H]1[C@H]([C@H](O)[C@H](O)CO)OC(O)(C(=O)O)C[C@@H]1O` (stereo partly shown) [NeuAc], for which the Kd in assay [1] is 157 µM; in assay [2], 0.51 µM; in assay [3], 0.013 µM; in assay [4], 600 µM.
